Source: US9914750B2, “Synthetic peptides and peptide mimetics” (University of Louisville Research Foundation, priority 2007, dated 2018)
“Also recorded” adds a separate entry of the source. No end group written: not given here.

Tests used:
[1] = test system: Aggregatibacter (Actinobacillus) actinomycetemcomitans JP2; format: cell-based; settings: 10 or 100 μg/ml
Experimental: The PSP peptides GL13, GK7 and KL11, lysozyme, LL37 or no peptide (BLK) were incubated with P. aeruginosa (FIG. 3A) or A. actinomycetemcomitans (FIG. 3B). P. aeruginosa PAO1 (10^5 cells/ml) were incubated for 2 h at 35° C. with 10 μg/ml (open bars) or 100 μg/ml (shaded bars) of each peptide. A. actinomycetemcomitans JP2 (10^5 cells/nil) were incubated for 4 h at 37° C. under reduced oxygen conditions. Bacterial cultures were diluted and plated on LB agar (Pseudomonas) or BHI agar plates (A.a., low oxygen incubation) and surviving CFUs enumerated. The data are shown as mean±SEM, P. aeruginosa: N=8−22 at 100 μg/ml, N=2−10 at 10 μg/ml. A. actinomycetemcomitans: N=3. *) P<0.0001, **) P<0.004, ***) P<0.02
Overnight cultures of bacteria were pelleted and resuspended in 10 mM sodium phosphate, pH 7.4 (10^5 CFU/ml). Diluted bacteria (100 μl) were incubated with 10 or 100 μg/ml of each peptide in 10 mM sodium phosphate, pH 7.4. P aeruginosa PAO1 were incubated for 2 h at 35° C. while A. actinomycetemcomitans JP2 were incubated for 4 h at 37° C. under reduced oxygen conditions. […]
As a second antibacterial assay, bactericidal activity was determined by incubating the peptides (10 or 100 μg/ml) with P. aeruginosa, A. actinomycetemcomitans or S. gordonii in 10 mM phosphate buffer. […]

sheep red blood cells = test: Hemagglutination assay; format: cell-based; settings: PBS, absence of serum, 2 h
Experimental: FIG. 22: Hemagglutination of sheep red blood cells. RBCs were washed in PBS and incubated for 2 h in microtiter plates in PBS±5% fetal calf serum. Peptide concentrations were 83 μg/ml. The microtiter plate was imaged. Agglutinated red blood cells form a wide mat of cells, while non-agglutinated cells form a button shaped pellet.
Briefly, unmodified sheep erythrocytes (Cappel, M P Biomedicals, Irvine, Calif.) were washed in PBS and suspended at 1% in PBS. Diluted erythrocytes and 20 μg/ml of each peptide in PBS were mixed in polypropylene microtiter plates (120 μl per well) and incubated for 2 h at 35° C. The plates were imaged on a Kodak Image station.

[2] = test system: LPS-binding protein (LBP); test: Inhibition of LPS binding to LPS-binding protein (ELISA); settings: for Inhibition (Mean ± SEM) of LPS binding to LBP: relative to polymyxin B (100% inhibition), LPS preincubated with peptide
Experimental: Analysis of the PSP sequence indicated three possible regions of biological activity. Initially, three peptides corresponding to the PSP sequence in these regions were designed and used in these studies. The initial step in the inflammatory cascade is the binding of LPS to LPS-binding protein. This binding was inhibited by preincubation of LPS with each of the three peptides. […] The binding of LPS to LPB was analyzed to ELISA. 0% inhibition (100% binding) was determined in the absence of inhibitors while 100% inhibition was determined in the presence of the inhibitor polymyxin B. The inhibition of each peptide is determined relative to the effect of polymyxin B.

P. aeruginosa PAO1 [3] = test: MIC determination, broth dilution assay (growth OD 570 nm, pelleting in wells); format: cell-based, Pseudomonas aeruginosa
Experimental: (§1) FIGS. 5A and 5B: PSP peptides lack bacteriostatic activity. P. aeruginosa PAO1 or A. actinomycetemcomitans JP2 (10^5 cells/ml) were incubated overnight with two-fold serial dilutions of the indicated peptides. The OD was determined at 570 nm. The data for P. aeruginosa (FIG. 5A) are representative of six independent experiments. The data for A. actinomycetemcomitans (FIG. 5B) are representative of three independent experiments. Filled squares, lysozyme; open diamonds, no peptide; open triangles, KL-11; filled triangles, GK-7; open squares, GL-13; filled diamonds, LL-37. […] Lysozyme inhibits growth about 50%. None of the PSP peptides inhibit growth.
FIG. 6A-6C: GL13 causes bacterial cell spreading. Microtiter plates used to determine bacteriostatic activity (FIG. 5) were photographed after overnight incubation with serial dilutions of the indicated peptides. The diameter of the P. aeruginosa pellets in the presence of GL13 was determined and expressed relative to the peptide concentration in each well. A. Graph of the results. B and C are representative depictions of P. aeruginosa and A. actinomycetemcomitans, respectively, spreading in the presence of PSP peptides.
The minimal inhibitory concentration (MIC) of PSP peptides was tested using the broth dilution assay. […] Bacterial growth was quantitated by the optical density (OD) at 570 nm. […]

P. aeruginosa = test: Antibacterial activity in vivo, Romaine lettuce infection model; parameters: species or system Pseudomonas aeruginosa; settings: 200 μg/ml peptide injected with bacteria, scored after 2-3 days
Experimental: FIG. 4: Antibacterial activity in vivo. Romaine lettuce leaves were injected with P. aeruginosa (10^8 cells/nil) in the presence or absence of 200 μg/ml of antibacterial peptides. After 2-3 days incubation the injection sites were scored for infection on a scale of 0-100% relative to the no-bacteria (0% infection) and bacteria-only controls (PAO1) (100%). Data are from six independent experiments and are shown as mean±SEM, N=4−12. *) P<0.04, **) P<0.003.
Romaine lettuce heads were purchased from local grocery stores. Outer leaves were removed and undamaged leaves were selected. The leaves were rinsed in 0.1% bleach and incubated in plastic containers on filter paper moistened with 10 mM MgSO4. Overnight cultures of P. aeruginosa were diluted to 10^8 CFU/ml in 10 mM MgSO4 and supplemented with 200 μg/ml of each peptide. Ten μl (10^6 CFU, 2 μg peptide) were injected into the midrib of each leaf using a micro pipetter. Blank controls were incubated with buffer only, and bacterial controls were incubated without peptide. The plastic trays were covered and incubated at 35° C. Leaves were inspected daily for browning around the injection site or along the midrib. Generally rotting or moldy leaves were discarded. Infection was scored on a scale from 0% to 100% relative to blank controls and bacterial controls, respectively.

P. aeruginosa PAO1 [4] = test: Biofilm formation / bacterial adhesion assay, PVC microtiter plates, crystal violet; format: cell-based, Pseudomonas aeruginosa; settings: 50 μg/ml, 6 h, aerobic
Experimental: FIGS. 7A and 7B: PSP-peptides inhibit biofilm formation. P. aeruginosa PAO1 (overnight cultures, diluted 1:100 were incubated with 50 μg/ml of each peptide (LL37, GK7, GL13, KL11) or lysozyme for 6 h under aerobic (FIG. 7A) or reduced oxygen (anaerobic) (FIG. 7B) conditions. The OD 570 (growth) was determined and the attached cells were then quantitated by staining with crystal violet (biofilm). Growth and biofilm values were normalized against the mean of samples without peptides (HOAc) and expressed as mean±SEM. The data in panel A are from three independent experiments, N=22−24. The data in panel B are from two independent experiments, N=16. Lysozyme (Lyz) data are from a single experiment, N=8. *) different from Growth, P<0.002
(§2) Overnight cultures of P. aeruginosa PAO1 were diluted 1:100 in MHB and 100 μl/well were incubated with 5 μl of LL-37, GK-7, GL-13, KL-11 or lysozyme (1 mg/ml) in PVC microtiter plates. The plates were incubated for 6 h at 32° C. under aerobic or reduced oxygen conditions. Bacterial growth was quantitated spectrophotometrically at 570 nm. Twenty-five μl of 1% crystal violet in dH2O was added to each well and incubated 20 min at room temperature. The wells were emptied and washed three times in dH2O and then incubated for 30 min with 200 μl of 95% ethanol. The OD at 570 nm was determined as a measure of biofilm formation. Growth and biofilm values were normalized against the mean of samples incubated with 0.01% acetic acid without peptides.
as §2, with “μl of the bacterial suspension was mixed” for “μl/well were incubated”, “50 μg/ml” for “5 μl”, “lysozyme” for “lysozyme (1 mg/ml)”

[5] = test system: A. actinomycetemcomitans JP2; test: MIC determination, broth dilution assay (growth OD 570 nm, pelleting in wells); format: cell-based, Aggregatibacter (Actinobacillus) actinomycetemcomitans
Experimental: as §1
The minimal inhibitory concentration (MIC) of PSP peptides was tested using the broth dilution assay. Briefly, overnight cultures of bacteria were diluted in Mueller-Hinton broth (MHB) (Difco) to 10^5 CFU/ml. Diluted bacteria (100 μl) and two-fold serial dilutions of peptides in 10 mM sodium phosphate, pH 7.4 (20 μl) were mixed in polypropylene microtiter plates and incubated for 24 h at 35° C. for P. aeruginosa or 48 h at 37° C. under reduced oxygen conditions for A. actinomycetemcomitans. Control samples were incubated with bacteria and two-fold serial dilutions of 20 μl 0.01% acetic acid in 10 mM sodium phosphate. Bacterial growth was quantitated by the optical density (OD) at 570 nm. […]

[6] = Affinity binding of PSP to LPS-Sepharose / immobilized LPS
From the text: PLUNC binds LPS, as expected from its structural similarity to LPS-Binding Protein (LBP). To determine if PSP also binds LPS, the protein was expressed in GH4C1 cells and the secretion medium was used for affinity chromatography on LPS-Sepharose. After binding, the affinity matrix was washed and then eluted with PBS+0.2 g/1 EDTA. […] The results of this experiment establish that PSP is an LPS-binding protein and provides a method for purification of PSP.
Secretion medium from GH4C1 cells was loaded on LPS-Sepharose and the unbound fraction collected (this sample was divided on two lanes for PSP-WT). The column was washed and then eluted with PBS+EDTA. The eluted beads were boiled in SDS-sample buffer to release any remaining proteins.

Molecule: CC[C@H](C)[C@H](NC(=O)[C@H](CCCCN)NC(=O)[C@H](CCC(=O)O)NC(=O)[C@H](CCCCN)NC(=O)[C@H](CO)NC(=O)[C@H](CCCCN)NC(=O)[C@H](CCCNC(=N)N)NC(=O)[C@H](Cc1ccccc1)NC(=O)[C@H](Cc1ccccc1)NC(=O)[C@H](CC(=O)O)NC(=O)CNC(=O)[C@H](CC(C)C)NC(=O)[C@@H](N)CC(C)C)C(=O)NCC(=O)N[C@@H](CCCCN)C(=O)N[C@@H](CCC(=O)O)C(=O)N[C@@H](Cc1ccccc1)C(=O)N[C@@H](CCCCN)C(=O)N[C@@H](CCCNC(=N)N)C(=O)N[C@H](C(=O)N[C@H](C(=O)N[C@@H](CCC(N)=O)C(=O)N[C@@H](CCCNC(=N)N)C(=O)N[C@H](C(=O)N[C@@H](CCCCN)C(=O)N[C@@H](CC(=O)O)C(=O)N[C@@H](Cc1ccccc1)C(=O)N[C@@H](CC(C)C)C(=O)N[C@@H](CCCNC(=N)N)C(=O)N[C@@H](CC(N)=O)C(=O)N[C@@H](CC(C)C)C(=O)N[C@H](C(=O)N1CCC[C@H]1C(=O)N[C@@H](CCCNC(=N)N)C(=O)N[C@H](C(=O)N[C@@H](CCC(=O)O)C(=O)N[C@@H](CO)C(=O)O)[C@@H](C)O)C(C)C)[C@@H](C)CC)C(C)C)[C@@H](C)CC [LL37, reference compound]
- killing of A. actinomycetemcomitans [1]: 100%
- hemagglutination (words) (sheep red blood cells): did not cause hemagglutination

Molecule: GQIINLKASLDLL [GL13-OH, GQIINLKASLDLL]
- hemagglutination (words) (sheep red blood cells): caused hemagglutination

Molecule: GQIINLKASLNLL-NH2 [GL13-D/N-NH2, GQIINLKASLNLL-(CONH2)]
- hemagglutination (words) (sheep red blood cells): caused hemagglutination

Molecule: KAQEAEKLLNN [KN11]
- Inhibition (Mean ± SEM) of LPS binding to LBP [2]: 36% ± 13

Molecule: KLLNNVISK [KK9]
- Inhibition (Mean ± SEM) of LPS binding to LBP [2]: 34% ± 12

Molecule: Substance P: antibacterial cationic peptide substance P
- effect on LPS binding to LBP [2]: had no effect on LPS binding to LBP
- Inhibition (Mean ± SEM) of LPS binding to LBP [2]: −18% ± 19

Molecule: lysozyme: Lysozyme (egg white) from Fisher Scientific, established antimicrobial protein [reference compound]
- reduction of growth of P. aeruginosa (P. aeruginosa PAO1 [3]; broth dilution assay): about 50%
- MIC (P. aeruginosa PAO1 [3]; two-fold serial dilutions starting at 84 μg/ml): did not exhibit a defined MIC
- infection of lettuce leaves (P. aeruginosa): significantly reduced the infection
- bacterial growth in biofilm/adhesion assay (P. aeruginosa PAO1 [4]): affected neither growth nor biofilm formation; also recorded: affected neither growth nor adhesion
- biofilm formation / adhesion (P. aeruginosa PAO1 [4]): affected neither growth nor biofilm formation; also recorded: affected neither growth nor adhesion
- growth inhibition of A. actinomycetemcomitans [5]: did not inhibit growth of A. actinomycetemcomitans

B1: PSP: human Parotid Secretory Protein (SPLUNC2, C20ORF70), SEQ ID NO:6 (protein, listed as Homo sapiens)
chain: MLQLWKLVLLCGVLTGTSESLLDNLGNDLSNVVDKLEPVLHEGLETVDNTLKGILEKLKVDLGVLQKSSAWQLAKQKAQEAEKLLNNVISKLLPTNTDIFGLKISNSLILDVKAEPIDDGKGLNLSFPVTANVTVAGPIIGQIINLKASLDLLTAVTIETDPQTHQPVAVLGECASDPTSISLSLLDKHSQIINKFVNSVINTLKSTVSSLLQKEICPLIRIFIHSLDVNVIQQVVDNPQHKTQLQTLI
- binding of PSP to LPS [6]: quantitatively retained by the LPS affinity matrix; also recorded: bound to immobilized P. aeruginosa LPS
